{"source": "paper PMC3115046", "about": "“Analyzing Airway Inflammation with Chemical Biology: Dissection of Acidic Mammalian Chitinase Function with a Selective Drug-like Inhibitor” (Chemistry & Biology, 2011)", "key": {"recombinant mAMCase": {"biological_target": "T1, recombinant mAMCase (Mus musculus, UniProt Q91XA9)", "T1 construct": "The full-length-coding region of mAMCase was amplified using a lung cDNA template; V5/His; made in house; cell-free, serum-free supernatant used as enzyme source", "T1 sequence (Q91XA9 22-473)": "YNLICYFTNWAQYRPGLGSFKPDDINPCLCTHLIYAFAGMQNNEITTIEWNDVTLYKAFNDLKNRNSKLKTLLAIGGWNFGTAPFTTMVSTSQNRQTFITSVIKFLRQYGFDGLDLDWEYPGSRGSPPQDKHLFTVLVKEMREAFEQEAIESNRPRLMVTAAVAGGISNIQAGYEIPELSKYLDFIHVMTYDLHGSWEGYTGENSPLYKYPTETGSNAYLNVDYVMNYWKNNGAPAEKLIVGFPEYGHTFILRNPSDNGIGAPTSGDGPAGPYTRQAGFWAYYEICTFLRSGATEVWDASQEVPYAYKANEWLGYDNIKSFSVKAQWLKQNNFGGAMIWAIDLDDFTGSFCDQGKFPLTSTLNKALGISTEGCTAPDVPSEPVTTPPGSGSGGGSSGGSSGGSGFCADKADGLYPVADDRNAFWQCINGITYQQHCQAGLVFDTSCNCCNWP", "assay": "Recombinant mAMCase (COS-7 cell-free supernatant) chitinase activity assay", "assay_type": "biochemical", "conditions": "10 min at 37°C, read-out: IC50 against recombinant mAMCase", "experimental": "Chitinase activity was determined using a fluorescent 4-methylumbelliferyl (4-MU) substrate. […] Chitinase activity is measured relative to the amount of substrate hydrolysed/hr/mL sample.\nThe full-length-coding region of mAMCase was amplified using a lung cDNA template. The cDNA fragment was directionally cloned into pcDNA3.1 (Invitrogen), to generate a V5/His tagged plasmid. TOP10 competent cells were transformed with the AMCase plasmid and sequence confirmed. Mammalian COS-7 cells were transfected with AMCase-pcDNA3.1 plasmid using Lipofectamine 2000 (Invitrogen). COS-7 cell supernatants were screened for AMCase protein by western blot and chitinase activity. A stable AMCase-expressing cell line was generated using G418 selection medium (RPMI).\nChitinase activity of hAMCase, lung homogenates, or AMCase COS-7 cell supernatants (serum-free) were determined using 4-methylumbelliferyl-β-D-N,N′,N″-triacetylchitotrioside and 4-methylumbelliferyl-β-D-N,N′,N″-triacetylchitobioside, as described. Samples were incubated with substrate (0.022 mM in 100 mM citric acid, 200 mM sodium phosphate buffer [pH 5.2]) in a final volume of 50 μL. […] Liberated 4-methlyumberlliferone was quantified using a microplate fluorometer (excitation 360 nm/emission 440 nm). Ki and IC50 values were determined in the presence of different concentrations of inhibitor. Experiments were performed in duplicate or triplicate."}, "[1]": {"tested_on": "lung tissue gene expression", "assay": "Lung mRNA expression by quantitative RT-PCR, OVA model", "assay_type": "in vivo, BALB/c mice", "protocol": "All experiments used female BALB/c mice, 6- to 8-weeks-old. Mice were kept in individually ventilated cages and all experiments were conducted under UK Home Office guidelines. Mice were sensitized (day 0) and boosted (day 14) i.p. with 20 μg OVA (Grade V, Sigma) adsorbed to 9% potassium alum. Mice were either challenged on day 28 and 30 with 50 μg OVA or PBS by the intratracheal route or were challenged with 1% OVA or PBS by aerosol for 30 min on day 28 to day 30. […] Necropsies were performed 24 hr after the final airway challenge. One part of the left lobe of the lung, removed following BALF, was stored in RNAlater (Ambion) at 4°C for up to 4 weeks. Lung samples were homogenized in RLT lysis buffer using TissueLyser (QIAGEN) and total RNA extracted using RNeasy mini spin columns (QIAGEN). RNA (1 μg) was used for synthesis of cDNA using Moloney murine leukemia virus reverse transcriptase. Relative quantification of genes was carried out by RT-PCR using the Roche Lightcycler, as previously described ([Nair et al., 2005]). PCR amplication was analyzed using 2nd derivative Maximum alogarithm (LightCycler 480 SW 1.5, Roche) and the expression of the gene of interest was normalized to the housekeeping gene, GAPDH. Primer sequences used were as follows: GAPDH-For [NT], Rev [NT]1-For [NT], Rev [NT] Collagen I-For [NT], Rev [NT]-1α-For [NT], Rev […]-12-For [NT], Rev [NT]; and TIMP-1-For [NT], Rev [NT]"}, "[2]": {"tested_on": "OVA-specific tLN cell cultures", "assay": "Cytokine and chemokine secretion from draining tLN cell cultures (Luminex)", "assay_type": "in vivo, BALB/c mice", "protocol": "All experiments used female BALB/c mice, 6- to 8-weeks-old. Mice were kept in individually ventilated cages and all experiments were conducted under UK Home Office guidelines. Mice were sensitized (day 0) and boosted (day 14) i.p. with 20 μg OVA (Grade V, Sigma) adsorbed to 9% potassium alum. Mice were either challenged on day 28 and 30 with 50 μg OVA or PBS by the intratracheal route or were challenged with 1% OVA or PBS by aerosol for 30 min on day 28 to day 30. […] Necropsies were performed 24 hr after the final airway challenge.\nThe draining thoracic lymph nodes (tLN) were dissected and single-cell suspensions made before being plated out at 1 × 10^6 cells/mL in 96-well plates (RPMI 1640 supplemented with L-glutamine, penicillin streptomycin, and FCS). Cells were stimulated with 500 μg/mL OVA and incubated for 72 hr at 37°C, 5% CO2. MIP-1α levels were measured in cell-free supernatants using a Luminex kit (Invitrogen) and samples were read with a Luminex 100 multiplex bead array system."}, "lung chitinase activity": {"tested_on": "lung chitinase activity", "assay": "Chitinase activity in lung homogenates, OVA allergic inflammation model", "assay_type": "in vivo, BALB/c mice", "protocol": "Samples were incubated with substrate (0.022 mM in 100 mM citric acid, 200 mM sodium phosphate buffer [pH 5.2]) in a final volume of 50 μL. After a 10 min incubation at 37°C, the reaction was stopped with the addition of 500 μl sodium carbonate buffer (0.5 M sodium carbonate and 0.5 M sodium bicarbonate [pH 10.6]). Liberated 4-[…] was quantified using a microplate fluorometer (excitation 360 nm/emission 440 nm). Ki and IC50 values were determined in the presence of different concentrations of inhibitor. Experiments were performed in duplicate or triplicate. All experiments used female BALB/c mice, 6- to 8-weeks-old. Mice were kept in individually ventilated cages and all experiments were conducted under UK Home Office guidelines. Mice were sensitized (day 0) and boosted (day 14) i.p. with 20 μg OVA (Grade V, Sigma) adsorbed to 9% potassium alum. Mice were either challenged on day 28 and 30 with 50 μg OVA or PBS by the intratracheal route or were challenged with 1% OVA or PBS by aerosol for 30 min on day 28 to day 30. […] Necropsies were performed 24 hr after the final airway challenge. Protein from dissected lung was homogenized (TissueLyser, QIAGEN) in lysis buffer containing protease cocktail inhibitor (Sigma). Samples were incubated for 20 min on ice, prior to centrifugation 10,000 × g to removed cell debris. Protein amounts were quantified with Coomassie (Bradford) Reagent. […]"}, "[3]": {"biological_target": "human chitotriosidase (hCHIT1) (Homo sapiens, UniProt Q13231)", "sequence (Q13231 22-466)": "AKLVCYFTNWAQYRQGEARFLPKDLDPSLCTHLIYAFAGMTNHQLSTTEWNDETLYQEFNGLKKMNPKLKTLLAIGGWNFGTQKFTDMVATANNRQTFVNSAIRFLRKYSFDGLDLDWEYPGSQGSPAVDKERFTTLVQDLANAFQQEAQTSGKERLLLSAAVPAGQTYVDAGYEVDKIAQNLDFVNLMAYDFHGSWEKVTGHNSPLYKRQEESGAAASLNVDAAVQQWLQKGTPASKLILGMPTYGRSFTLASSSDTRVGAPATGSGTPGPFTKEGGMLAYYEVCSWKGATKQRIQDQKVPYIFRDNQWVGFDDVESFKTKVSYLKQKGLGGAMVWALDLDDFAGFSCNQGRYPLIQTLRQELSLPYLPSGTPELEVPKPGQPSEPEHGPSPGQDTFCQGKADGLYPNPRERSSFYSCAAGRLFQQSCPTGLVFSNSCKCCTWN", "assay": "Chitinase activity assay with fluorescent 4-MU substrate, hCHIT1", "assay_type": "biochemical", "conditions": "read-out: IC50 against hCHIT1"}, "[4]": {"conditions": "1 and 5 mg/kg i.p., allergic animals"}}, "note": "Values joined by “and” are separate entries in the source; they are usually repeats but may differ in a detail not shown here. Identical values can stand only once. Like-named read-outs stand apart in the source and are kept apart here.", "data": [{"molecule": "Cn1cnc2c1c(=O)n(CCCn1c(=O)c3[nH]cnc3n(C)c1=O)c(=O)n2C", "note": "[bisdionin F]", "values": [{"measurement": "IC50", "setting": "recombinant mAMCase", "value": "2.21 µM and 2.2 µM"}, {"measurement": "MIP-1α mRNA expression in lung", "setting": "[1]; 5 mg/kg i.p., OVA-challenged animals", "value": "enhanced"}, {"measurement": "MMP-12 mRNA expression in lung", "setting": "[1]; [4]", "value": "significantly increased"}, {"measurement": "TIMP-1 mRNA expression in lung", "setting": "[1]; [4]", "value": "downregulated"}, {"measurement": "Ym1 mRNA expression in lung", "setting": "[1]; [4]", "value": "significantly increased"}, {"measurement": "procollagen I mRNA expression in lung", "setting": "[1]; [4]", "value": "significantly increased"}, {"measurement": "enhancement of the ratio of MMP:TIMP expression", "setting": "[1]; MMP-12:TIMP-1 mRNA, allergic animals", "value": 2.5, "unit": "fold"}, {"measurement": "MIP-1α secretion from tLN cell cultures", "setting": "[2]; 5 mg/kg i.p., OVA-challenged animals, 72 hr culture", "value": "enhanced"}, {"measurement": "IL-17 secretion in tLN cultures", "setting": "[2]; allergic mice, data not shown", "value": "not significantly altered"}, {"measurement": "KC secretion in tLN cultures", "setting": "[2]; allergic mice, data not shown", "value": "not significantly altered"}, {"measurement": "chitinase activity in the lungs", "setting": "lung chitinase activity; 5 mg/kg i.p., control PBS and OVA-challenged mice, about 24 hr after last challenge", "value": "significantly reduced"}, {"measurement": "lowest dose at which any chitinase inhibition was observed", "setting": "lung chitinase activity; i.p., allergic mice", "value": 1, "unit": "mg/kg"}, {"measurement": "IC50", "setting": "[3]; listed as Bisdionin F", "value": "17.1 ± 1", "unit": "µM"}, {"measurement": "IC50", "setting": "[3]", "value": 17, "unit": "µM"}]}]}
